From patent US11426422B2, “SHP2 inhibitors and methods of use thereof” (Research Development Foundation, priority 2018, dated 2022) come the findings set out here.

Where no end group is shown, it is not given here. [ ]: non-standard residue; d: D form. pY = N[C@@H](Cc1ccc(OP(=O)(O)O)cc1)C(=O)O

The subject of assay [1] is HepG2 cells expressing IR-GFP WT. Put plainly: insulin-activated IR endocytosis in HepG2 cells expressing IR-GFP WT (immunofluorescence, PM/IC ratio). The settings on record: serum starved 14 h, inhibitor 2 h, then 100 nM insulin 20 min; BMS536924 2 μM, U0126 40 μM, SHP099 40 μM, AKT inhibitor VIII 5 μM, BI2536 200 nM, Reversine 1 μM. It is filed as cell-based.
Protocol: (FIG. 2A) HepG2 cells expressing IR-GFP WT were starved, treated with the indicated inhibitors for 2 h, treated without or with 100 nM insulin for 20 min, and stained with anti-GFP (IR; green) and DAPI (blue). […] Quantification of the ratios of PM and IC IR-GFP signals of cells was shown (mean±SD; *p<0.0001).
To test whether the MAPK pathway and SHP2 might regulate the IRS1/2-AP2 interaction and IR endocytosis through modulating IRS1/2 phosphorylation patterns, the effects of inhibiting SHP2 or the MAPK pathway on insulin-activated IR endocytosis were examined (FIG. 2A and FIG. 7A).
For testing the effects of kinase inhibitors on IR endocytosis, the cells were serum starved for 14 h and inhibitors were added at 2 h before insulin treatment.
For assay [2], the system named is HepG2 cells expressing IR-GFP mutants. Put plainly: cellular localization of IR-GFP mutants in HepG2 cells after inhibitors. It is filed as cell-based. The following applies: starved 14 h, inhibitors 4 h, no insulin; for PM levels of Class II IR mutants: R1020Q, V1054M, A1075D, V1086E, I1143T. From the text:
FIGS. 4A-E. Dysregulation of IR endocytosis as a potential contributing factor to human insulin resistance syndromes. (FIG. 4A) Representative images of liver specimens from human non-diabetes and diabetes patients stained with DAPI (blue) and anti-IR (red) and anti-ZO-1 (green) antibodies. Scale bars, 40 μm. (FIG. 4B) Quantification of the percentage of cells with positive IR PM signals in liver specimens in FIG. 4A (mean±SD; *p<0.0001). (FIG. 4C) HepG2 cells stably expressing IR-GFP R1020Q, V1054M, A1075D, V1086E, or I1143T were serum starved and stained with anti-GFP and anti-RAB7 antibodies. Scale bar, 5 μm. (FIG. 4D) Quantification of the ratios of PM and IC IR-GFP signals of cells in FIG. 4C (mean±SD; *p<0.0001). (FIG. 4E) Targeting feedback regulation of IR endocytosis for diabetes treatment. Left panel depicts the feedback regulation of IR endocytosis by ERK1/2 and SHP2 during unperturbed insulin signaling.
FIGS. 9A-D. Characterization of IR mutations found in human patients. (FIG. 9A) HepG2 cells expressing IR-GFP Class I mutants (P997T, V1012M, A1055V, K1095E, R1119Q, H1157R, R1191Q, Y1361C, or R1378Q) were starved for 14 h, treated with the indicated inhibitors for 4 h, and stained with anti-GFP (IR; green) and DAPI (blue). Scale bar, 5 m. (FIG. 9B) HepG2 cells expressing IR-GFP Class II mutants (R1020Q, V1054M, A1075D, V1086E, or I1143T) were analyzed as described in FIG. 9A. (FIG. 9C) HepG2 cells expressing IR-GFP Class III mutants (A1162E or W1220L) were analyzed as described in A. (FIG. 9D) HepG2 cells expressing IR-GFP WT, R1020Q, or V1054M were serum starved for 14 h and treated with DMSO or 80 μM Dynasore for 4 h. Cell lysates were blotted with the indicated antibodies.
Mutations of IR are known to cause inherited severe insulin resistance syndromes, but the mechanisms by which these mutations affect IR function have not been systematically explored. HepG2 cell lines were generated which stably expressed IR mutants fused to GFP, and the subcellular localization of these IR-GFP proteins was examined (FIGS. 9A-C and Table 1).
There were three distinct classes of IR mutants based on their subcellular localization in the unstimulated state. Class I mutants localized to the PM. […] Thus, certain IR mutations found in human insulin resistance syndromes perturbs IR kinase regulation and causes premature IR endocytosis.
Cellular localization of IR mutants was examined after inhibiting the SHP2 or MAPK pathways (FIGS. 4C-D, and FIGS. 9A-C).
Indirect immunofluorescence microscopy was performed on cells grown on coverslips and fixed in cold methanol at −20° C. for 10 min. The fixed cells were incubated with PBS for 30 min and 3% BSA in 0.1% PBST for 1 h, and then treated with diluted antibodies in 0.3% BSA in 0.1% PBST at 4° C. overnight. After being washed, cells were incubated with fluorescent secondary antibodies and mounted on microscope slides in ProLong Gold Antifade reagent with DAPI (Invitrogen). Images of fixed cells were acquired as a series of 0.4 m stacks with a DeltaVision® system (Applied Precision®, Issaquah, Wash.). Raw images were deconvolved using the iterative algorithm implemented in the softWoRx® software (Applied Precision®, Issaquash, Wash.). The central section of a 0.4 μm z-stack containing 3 contiguous focal planes was used for quantification. The cell edges were defined with Image J. The whole cell signal intensity (WC) and intracellular signal intensity (IC) were measured. The plasma membrane signal intensity (PM) was calculated by subtracting IC from WC. Identical exposure times and magnifications were used for all comparative analyses.

The target in assay [3] is T1, AP2M1 (residues 160-435) (Homo sapiens, UniProt Q96CW1).
T1 construct: The AP2M1 fragment (residues 160-435) was cloned into a modified pET28a; His6 (N, cleaved yes); made in house; host or cells: E. coli BL21(DE3)
T1 sequence (Q96CW1 160-435): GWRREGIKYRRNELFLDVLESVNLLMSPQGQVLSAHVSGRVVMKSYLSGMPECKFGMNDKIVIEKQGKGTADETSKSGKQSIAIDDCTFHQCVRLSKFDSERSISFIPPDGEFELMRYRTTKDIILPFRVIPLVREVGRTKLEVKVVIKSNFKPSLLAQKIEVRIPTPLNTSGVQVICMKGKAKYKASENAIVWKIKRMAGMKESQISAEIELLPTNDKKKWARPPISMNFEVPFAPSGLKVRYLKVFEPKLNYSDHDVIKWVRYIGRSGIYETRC
Put plainly: in vitro peptide pull-down of AP2M1 with IRS1 peptides. It counts as binding. The following applies: peptide beads pull-down, SDS-PAGE, Coomassie. Here is the method: FIGS. 2A-I. The MAPK pathway and SHP2 promote insulin-activated IR endocytosis. (FIG. 2A) HepG2 cells expressing IR-GFP WT were starved, treated with the indicated inhibitors for 2 h, treated without or with 100 nM insulin for 20 min, and stained with anti-GFP (IR; green) and DAPI (blue). See also FIG. 7A for representative images. Quantification of the ratios of PM and IC IR-GFP signals of cells was shown (mean±SD; *p<0.0001). (FIG. 2B) Binding of IRS1 peptides to AP2M1 (residues 160-435). Input and proteins bound to IRS1-peptide beads were analyzed by SDS-PAGE and stained with Coomassie (CBB). The relative band intensities are shown below (mean±SD; n=4 independent experiments). (FIG. 2C) ITC analysis of binding between IRS1 peptides and AP2M1 (residue 160-435), with the Kd indicated. (FIG. 2D) The IRS1 peptides were incubated with active SHP2 for the indicated durations, spotted onto membranes, and detected with the anti-pY612-IRS1 antibody. (FIG. 2E) Quantification of the relative SHP2 activity in FIG. 2D (mean±SD; n=4 independent experiments; *p<0.0001). (FIG. 2F) Model of the regulation of insulin-activated IR endocytosis by a phosphorylation switch on IRS1/2. Insulin-bound IR phosphorylates itself and IRS1/2, and activates the PI3K-AKT and MAPK pathways. SHP2 acts upstream of RAS-RAF and promotes the activation of MAPK pathway. p31^comet binds to the IR-bound MAD2 and blocks IR-AP2 association to prevent premature IR endocytosis. In feedback regulation, activated ERK1/2 phosphorylate S616 and other sites on IRS1. […]
(§1) For GST pull-down assays of in vitro translated (IVT) IRS1 proteins, beads bound to GST-AP2M1 or GST were incubated with IVT products diluted in the cell lysis buffer at 4° C. for 2 h. After incubation and washing, proteins bound to beads were eluted with the SDS loading buffer, resolved with SDS-PAGE, and detected with Coomassie staining or immunoblotting with the appropriate antibodies. […]

Assay [4] addresses T1, AP2M1 (residues 160-435). The experiment in a line: isothermal titration calorimetry (ITC) of IRS1 peptides with AP2M1. It counts as binding. The settings on record: 20° C., HEPES buffer pH 7.5.
From the text: The unphosphorylated and phosphorylated IRS1 peptides containing 612YMPMS (SEQ ID NO:7) FIG. 7B) were chemically synthesized and used for in vitro pull-down assays to examine their binding to AP2M1 (FIG. 2B). […] Thus, phosphorylation of IRS1 by ERK1/2 enhances IRS1 binding to AP2M1.
The AP2M1 fragment (residues 160-435) was cloned into a modified pET28a that introduced an N-terminal His6-tag followed by a thrombin cleavage site. The plasmid was transformed into BL21(DE3) E. coli cells. Protein expression was induced by 0.2 mM IPTG at 20° C. overnight. The harvested pellets were lysed in the lysis buffer II (20 mM Tris-HCl, pH 7.5, 500 mM NaCl, 20 mM Imidazole, 1 mM PMSF). After sonication, lysates were cleared by centrifugation at 4° C. The supernatants were filtered by […] filter and incubated with pre-equilibrated Ni2+-NTA beads (Qiagen®). […]
as §1
In general terms: Isothermal titration calorimetry measures the heat released or taken up as one component is titrated into another.

Regarding `O=c1[nH]c2ccccc2n1C1CCN(Cc2ccc(-c3nc4cc5[nH]cnc5cc4nc3-c3ccccc3)cc2)CC1` [AKTi, VIII], the “insulin-activated IR endocytosis (ratio of PM and IC IR-GFP signals)” value in assay [1] was “did not affect IR endocytosis”. On to `Cc1cc(N2CCOCC2)cc2[nH]c(-c3c(NC[C@@H](O)c4cccc(Cl)c4)cc[nH]c3=O)nc12` [BMS536924], for which, in assay [2], the “PM levels of Class II IR mutants” value is “restored Class II IR mutants at the PM”. In assay [1], the “insulin-activated IR endocytosis (ratio of PM and IC IR-GFP signals)” value is recorded as “blocked IR endocytosis”. Regarding `N#CC(=C(/N)Sc1ccccc1N)/C(C#N)=C(\N)Sc1ccccc1N` [Compound U0126], in assay [2], the “PM levels of Class I and III IR mutants” value was “not those of Class I and III IR mutants”; the “PM levels of Class II IR mutants” value is listed as “significantly enhanced the PM levels of Class II IR mutants”. Further, the “insulin-activated IR endocytosis (ratio of PM and IC IR-GFP signals)” value in assay [1] is listed as “blocked IR endocytosis”. Take `c1nc2nc(Nc3ccc(N4CCOCC4)cc3)nc(NC3CCCCC3)c2[nH]1` [Reversine]: the “insulin-activated IR endocytosis (ratio of PM and IC IR-GFP signals)” value in assay [1] is recorded as “did not appreciably inhibit IR endocytosis”. As for `O=C(N/N=C/c1ccc(O)c(O)c1)c1cc2ccccc2cc1O` [dynasore], in assay [2], the “PM levels of Class II IR mutants” value is recorded as “elevated the IR signal of Class II mutants at the PM”. In the case of “AMPAS: mutant IRS1 peptide CHTDDGAMPASPGVA (SEQ ID NO:10), Y612 and M615 replaced by alanine”, the “binding to AP2M1” value with AP2M1 (residues 160-435) [3] is given as “did not”.

CHTDDGYMPMSPGVA [YMPMS]: binding on AP2M1 (residues 160-435) [4] was characterised by a dissociation constant (Kd) of 2030 nM. On to “pYMPMS: singly phosphorylated IRS1 peptide CHTDDGpYMPMSPGVA (SEQ ID NO:12) (CHTDDG[pY]MPMSPGVA)”, for which, in the assay with AP2M1 (residues 160-435) [3], the “binding to AP2M1” value was “abolished AP2M1 binding”.

As usually defined, the Kd is the constant that tells how readily two partners part at equilibrium.
